The results in this text go back to patent US11572590B2, “Methods for evaluating tumor cell spheroids using 3D microfluidic cell culture device” (Dana-Farber Cancer Institute, Inc., priority 2017, dated 2023).

Like-named read-outs stand apart in the source and are kept apart here.

For the assay, the target named is T1, off-target kinases (Homo sapiens, UniProt P29323).
T1 sequence (P29323 19-1055): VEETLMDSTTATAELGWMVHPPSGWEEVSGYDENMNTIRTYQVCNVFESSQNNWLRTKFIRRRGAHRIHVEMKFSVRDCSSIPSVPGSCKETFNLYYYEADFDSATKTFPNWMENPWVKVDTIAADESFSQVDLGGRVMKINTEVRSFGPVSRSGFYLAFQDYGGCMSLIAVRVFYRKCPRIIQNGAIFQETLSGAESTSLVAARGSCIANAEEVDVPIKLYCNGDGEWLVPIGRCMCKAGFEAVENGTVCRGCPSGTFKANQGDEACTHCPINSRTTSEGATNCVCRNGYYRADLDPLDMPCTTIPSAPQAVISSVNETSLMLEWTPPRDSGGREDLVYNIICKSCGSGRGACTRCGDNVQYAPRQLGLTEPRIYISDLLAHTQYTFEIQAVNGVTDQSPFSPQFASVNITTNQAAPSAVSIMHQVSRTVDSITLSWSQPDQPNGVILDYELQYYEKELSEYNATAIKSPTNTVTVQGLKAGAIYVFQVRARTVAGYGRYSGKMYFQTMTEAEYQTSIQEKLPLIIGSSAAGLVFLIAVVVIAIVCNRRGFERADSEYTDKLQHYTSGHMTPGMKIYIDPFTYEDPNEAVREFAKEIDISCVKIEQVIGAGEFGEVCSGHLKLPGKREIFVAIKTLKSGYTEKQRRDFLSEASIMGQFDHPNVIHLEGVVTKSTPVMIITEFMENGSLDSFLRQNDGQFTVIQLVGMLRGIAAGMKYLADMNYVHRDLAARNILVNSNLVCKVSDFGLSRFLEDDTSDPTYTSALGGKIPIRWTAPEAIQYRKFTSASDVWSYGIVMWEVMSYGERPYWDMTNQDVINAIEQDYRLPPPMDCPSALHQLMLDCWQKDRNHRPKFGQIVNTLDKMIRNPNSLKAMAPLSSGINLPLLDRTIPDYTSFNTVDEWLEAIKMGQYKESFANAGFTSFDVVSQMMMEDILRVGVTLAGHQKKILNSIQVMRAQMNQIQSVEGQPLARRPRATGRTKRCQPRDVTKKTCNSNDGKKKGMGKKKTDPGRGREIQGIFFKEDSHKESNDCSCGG
The assay is described as follows: SelectScreen Kinase Profiling, single point inhibition and IC50 for off-target kinases. The class given is biochemical. The settings on record: EPHB2, ZLYTE, ATP Km app. Here is the method: Biochemical single point inhibition and IC50 concentrations for TBK1, IKKε (IKBKE), and off-target kinases were determined at ThermoFisher Scientific using SelectScreen Kinase Profiling Services (Madison, Wis., USA) (Tables S4A and S4B-1-7). To determine cellular potency, the human colorectal cancer carcinoma cell line HCT116 (ATCC, Manassas, Va.) was maintained in T175 flasks in complete RPMI medium; RPMI 1640 supplemented with 10% FBS, 1× Penicillin-Streptomycin solution and 1×MEM (non-essential amino acids). HCT116 cells were grown to 90-95% confluency in T175 flasks containing complete RPMI medium and transfected in bulk using Lipofectamine 2000 (Invitrogen, Carlsbad, Calif.) with 70 μg of ISG54-luciferase reporter plasmid (Elim Biopharmaceuticals Inc., Hayward, Calif.). The reporter plasmid contains a luciferase gene expression cassette under the transcriptional regulation of the promoter of the human interferon stimulated gene 54 (ISG54). Transfection of the cells was allowed to take place for 6 hours, after which the cells were harvested by treatment with 0.25% trypsin EDTA (Corning Inc., Corning, N.Y.). Trypsinized cells were added to 384-well poly-d-lysine treated black clear bottom tissue culture assay plates (Greiner Bio-One GmbH, Kremsmünster, Austria) at a density of 20,000 cells/well in 80 μL of complete RPMI medium and incubated overnight. After 16-18 hours post-transfection, the assay plates were washed with PBS (Corning Inc., Corning, N.Y.), followed by addition of 80 μL/well of serum-free RPMI 1640 medium containing 1× Penicillin-Streptomycin solution, 1×MEM and 350 nL of DMSO or titrations of Compound 1. Compound 1 titrations were generated by 1.5-fold dilution steps in two overlapping serial dilution series to generate a 40-point compound dose range. After incubation at 37° C. for 1 hour, the cells were stimulated with Poly(I:C) (InvivoGen, San Diego, Calif.) at a final concentration of 15 μg/mL in Optimem media (Life Technologies, Rockville, Md.). The assay plates were incubated for 5 hours at 37° C., followed by addition of One-Glo luciferase firefly reagent (Promega, Madison, Wis.) at 1:1 volume/well and luminescence was measured in an EnVision Multilabel Plate Reader (PerkinElmer, Santa Clara, Calif.). The EC50 values were calculated from the fit of the dose-response curves to a four-parameter equation. All EC50 values represent geometric mean values of a minimum of four determinations.

In general, inhibition refers to how much of the control response was suppressed. Turning to `N#Cc1cc(-c2ncnc(Nc3ccc(N4CCN(C5COC5)CC4)cc3)n2)ccc1OC1CCOCC1` [Compound 1, 5-(4-((4-(4-(oxetan-3-yl)piperazin-1-yl)phenyl)amino)-1,3,5-triazin-2-yl)-2-((tetrahydro-2H-pyran-4-yl)oxy)benzonitrile], the inhibition came out at 14% (read-out: % Inhibition 1), 17% (read-out: % Inhibition 2) and 16% (read-out: % Inhibition Avg).
